In US11273166B2, “Methods and compositions for the treatment of obesity” (Monash University, priority 2017, dated 2022):

Columns and labels:
[1] = system: PTP1B and TCPTP in the arcuate nucleus of the hypothalamus; test: Celastrol i.p. for 10 days in high fat fed Ptpn1fl/fl: Ptpn2fl/fl mice, rAAV-Cre-eGFP vs rAAV-eGFP in ARC; format: in vivo, mouse; details: mice lacking PTP1B and TCPTP in the ARC; 20 μg/ml i.p., 10 consecutive days
Experimental: FIG. 28 The ability of celastrol to promote weight loss in obese mice is abrogated in mice lacking PTP1B and TCPTP in the arcuate nucleus of the hypothalamus. 12-week high fat fed Ptpn1^fl/fl: Ptpn2^fl/fl male mice were bilateral injected with rAAV-eGFP or rAAV-Cre-eGFP into the arcuate nucleus of the hypothalamus (ARC). Two-week post AAV administration mice received Celastrol (20 μg/ml, i.p.) for 10 consecutive days and effects on a) Body weights, b) food intake, c-d) adiposity and lean mass (EchoMRI) was determined

[2] = molecular target: T1, TCPTP in the arcuate nucleus of the hypothalamus (Mus musculus, UniProt Q06180); test: Celastrol i.p. for 10 days in high fat fed Ptpn2fl/fl mice, rAAV-Cre-eGFP vs rAAV-eGFP in ARC; format: in vivo; details: mice lacking TCPTP in the ARC; 20 ug/ml i.p., 10 consecutive days
T1 construct: endogenous in cells; host or cells: arcuate nucleus of the hypothalamus of living high fat fed Ptpn2fl/fl mice
T1 sequence (Q06180 1-406): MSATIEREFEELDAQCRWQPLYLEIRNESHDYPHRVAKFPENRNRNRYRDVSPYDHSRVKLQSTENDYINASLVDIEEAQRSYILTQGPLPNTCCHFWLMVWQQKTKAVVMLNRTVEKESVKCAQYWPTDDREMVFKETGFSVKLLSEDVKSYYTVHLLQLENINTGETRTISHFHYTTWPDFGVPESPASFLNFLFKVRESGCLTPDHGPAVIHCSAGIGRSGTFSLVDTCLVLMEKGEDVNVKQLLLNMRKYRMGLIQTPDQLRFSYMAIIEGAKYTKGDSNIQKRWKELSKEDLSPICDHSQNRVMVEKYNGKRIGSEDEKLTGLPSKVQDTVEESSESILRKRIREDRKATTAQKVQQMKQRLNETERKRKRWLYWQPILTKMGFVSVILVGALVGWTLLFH
Experimental: 12-week high fat fed Ptpn2^fl/fl male mice were bilateral injected with rAAV-eGFP or rAAV-Cre-eGFP into the arcuate nucleus of the hypothalamus (ARC). Two-week post AAV administration mice received Celastrol (20 ug/ml, i.p.) for 10 consecutive days and effects on a-b) Body weights, b-c) food intake, e-f) adiposity and lean mass (EchoMRI) was determined.

[3] = molecular target: T2, PTP1B in the arcuate nucleus of the hypothalamus (Mus musculus, UniProt P35821); test: Celastrol i.p. for 10 days in high fat fed Ptpn1fl/fl mice, rAAV-Cre-eGFP vs rAAV-eGFP in ARC; format: in vivo; details: mice lacking PTP1B in the ARC; 20 μg/ml i.p., 10 consecutive days
T2 construct: endogenous in cells; host or cells: arcuate nucleus of the hypothalamus of living high fat fed Ptpn1fl/fl mice
T2 sequence (P35821 1-432): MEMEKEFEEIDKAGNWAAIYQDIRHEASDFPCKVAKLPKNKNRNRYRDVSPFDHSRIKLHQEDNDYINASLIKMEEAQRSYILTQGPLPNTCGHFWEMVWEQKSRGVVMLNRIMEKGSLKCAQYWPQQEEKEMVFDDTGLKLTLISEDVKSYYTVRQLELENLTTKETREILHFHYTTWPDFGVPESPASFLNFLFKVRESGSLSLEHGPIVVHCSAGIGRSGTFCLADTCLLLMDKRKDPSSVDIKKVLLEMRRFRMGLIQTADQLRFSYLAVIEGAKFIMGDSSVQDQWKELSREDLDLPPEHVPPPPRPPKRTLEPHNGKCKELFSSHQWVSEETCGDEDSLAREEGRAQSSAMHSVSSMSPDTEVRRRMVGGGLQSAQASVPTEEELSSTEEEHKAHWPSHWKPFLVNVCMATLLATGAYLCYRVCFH
Experimental: FIG. 30. […] 12-week high fat fed Ptpn1^fl/fl male mice were bilateral injected with rAAV-eGFP or rAAV-Cre-eGFP into the arcuate nucleus of the hypothalamus (ARC). Two-week post AAV administration mice received Celastrol (20 μg/ml, i.p.) for 10 consecutive days and effects on a-b) Body weights, c-d) food intake, e-f) adiposity and lean mass (EchoMRI) was determined.

Question: Which results are given for CC1=C(O)C(=O)C=C2C1=CC=C1[C@@]2(C)CC[C@@]2(C)[C@@H]3C[C@](C)(C(=O)O)CC[C@]3(C)CC[C@]12C [celastrol]?
Answer: ability to promote weight loss in obese mice [1]: abrogated; ability to promote weight loss in obese mice [2]: partially attenuated; ability to promote weight loss in obese mice [3]: partially attenuated
